Data on 31 compounds can be found in patent publication US20230019236A1, “PROTEIN TYROSINE PHOSPHATASE INHIBITORS AND METHODS OF USE THEREOF” (Calico Life Sciences LLC, priority 2019, published 2023).

Each structure is given as a SMILES string. Bounds are passed on as bounds.

The target in this test is T1, His tagged full-length PTP1B protein (Homo sapiens, UniProt P18031).
T1 construct: made in house
T1 sequence (P18031 with tags, fused parts or gaps): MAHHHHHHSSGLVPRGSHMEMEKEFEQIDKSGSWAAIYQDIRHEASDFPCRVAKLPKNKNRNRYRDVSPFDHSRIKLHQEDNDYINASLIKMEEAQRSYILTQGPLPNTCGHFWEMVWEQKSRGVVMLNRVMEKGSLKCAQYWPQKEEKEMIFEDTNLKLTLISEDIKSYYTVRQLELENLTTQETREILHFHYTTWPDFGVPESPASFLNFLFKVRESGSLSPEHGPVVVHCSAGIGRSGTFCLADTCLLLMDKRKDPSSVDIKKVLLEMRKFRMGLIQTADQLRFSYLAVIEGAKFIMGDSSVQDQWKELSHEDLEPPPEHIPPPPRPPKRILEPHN
In words: Mobility Shift Assay (MSA) used to determine potency of PTP1B inhibitors. The note with it: Table 2. The test is classed as biochemical. How it is done: The enzymatic assay used to determine activity is a mobility shift assay using a LabChip EZ Reader by Caliper Life Sciences. The enzymatic reaction was carried out in assay buffer (50 mM HEPES pH 7.5, 1 mM EGTA, 10 mM EDTA, 0.01% Tween® 20, and 2 mM DTT). […] The enzyme (at 0.5 nM) was incubated with compound for 10 minutes at room temperature. […] The % inhibition was then used to calculate the IC50 values.

In the case of `CC(C)C/C=C/c1ccc2cc(O)c(N3CC(=O)NS3(=O)=O)c(F)c2c1` [Compound 240, 5-{1-fluoro-3-hydroxy-7-[(1E)-4-methylpent-1-en-1-yl]naphthalen-2-yl}-1λ^6,2,5-thiadiazolidine-1,1,3-trione], the IC50 lay in the range of 1 to 10 nM.

For `COCc1ccc2cc(O)c(N3CC(=O)NS3(=O)=O)c(F)c2c1` [Compound 229, 5-[1-fluoro-3-hydroxy-7-(methoxymethyl)naphthalen-2-yl]-1λ^6,2,5-thiadiazolidine-1,1,3-trione], the IC50 is 10 to 100 nM.

Regarding `CC1(COc2ccc3cc(O)c(N4CC(=O)NS4(=O)=O)c(F)c3c2)COC1` [Compound 230, 5-{1-fluoro-3-hydroxy-7-[(3-methyloxetan-3-yl)methoxy]naphthalen-2-yl}-1λ^6,2,5-thiadiazolidine-1,1,3-trione], the concentration for half-maximal inhibition (IC50) is > 100 nM.

With `COc1ccc2cc(O)c(N3CC(=O)NS3(=O)=O)c(F)c2c1F` [Compound 205, 5-(1,8-difluoro-3-hydroxy-7-methoxynaphthalen-2-yl)-1λ^6,2,5-thiadiazolidine-1,1,3-trione], the IC50 is 10 to 100 nM.

For the compound `O=C1CN(c2c(O)cc3ccc(O)cc3c2F)S(=O)(=O)N1` [Compound 276, 5-(1-fluoro-3,7-dihydroxynaphthalen-2-yl)-1λ^6,2,5-thiadiazolidine-1,1,3-trione], the 50% inhibitory concentration (IC50) was > 100 nM.

For `CNCCCc1ccc2cc(O)c(N3CC(=O)NS3(=O)=O)c(F)c2c1` [Compound 139, 5-{1-fluoro-3-hydroxy-7-[3-(methylamino)propyl]naphthalen-2-yl}-1λ^6,2,5-thiadiazolidine-1,1,3-trione], the IC50 lay within 10 to 100 nM.

As to `O=C1CN(c2c(O)cc3ccc(OCc4cn[nH]c4)cc3c2F)S(=O)(=O)N1` [Compound 133, 5-{1-fluoro-3-hydroxy-7-[(1H-pyrazol-4-yl)methoxy]naphthalen-2-yl}-1λ6,2,5-thiadiazolidine-1,1,3-trione], the IC50 was 1 to 10 nM.

Regarding `O=C1CN(c2c(O)c(Br)c3ccc(-c4ccn(S(=O)(=O)C5CC5)c4)cc3c2F)S(=O)(=O)N1` [Compound 231B, 5-{4-bromo-7-[1-(cyclopropanesulfonyl)-1H-pyrrol-3-yl]-1-fluoro-3-hydroxynaphthalen-2-yl}-1λ^6,2,5-thiadiazolidine-1,1,3-trione], the 50% inhibitory concentration (IC50) was in the range of 1 to 10 nM.

On to `N#C/C=C/c1ccc2cc(O)c(N3CC(=O)NS3(=O)=O)c(F)c2c1` [Compound 208, (2E)-3-[8-fluoro-6-hydroxy-7-(1,1,4-trioxo-1λ^6,2,5-thiadiazolidin-2-yl)naphthalen-2-yl]prop-2-enenitrile], for which the IC50 was > 100 nM.

As for `C[C@@H](O)CCOc1ccc2cc(O)c(N3CC(=O)NS3(=O)=O)c(F)c2c1` [Compound 149, 5-{1-fluoro-3-hydroxy-7-[(3R)-3-hydroxybutoxy]naphthalen-2-yl}-1λ^6,2,5-thiadiazolidine-1,1,3-trione], the half-maximal inhibitory concentration (IC50) lay in the range of 1 to 10 nM.

As to `CC(C)OCCOc1ccc2cc(O)c(N3CC(=O)NS3(=O)=O)c(F)c2c1` [Compound 215, 5-(1-fluoro-3-hydroxy-7-{2-[(propan-2-yl)oxy]ethoxy}naphthalen-2-yl)-1λ^6,2,5-thiadiazolidine-1,1,3-trione], the half-maximal inhibitory concentration (IC50) was 1 to 10 nM.

For `N#CCOc1ccc2cc(O)c(N3CC(=O)NS3(=O)=O)c(F)c2c1` [Compound 203, {[8-fluoro-6-hydroxy-7-(1,1,4-trioxo-1λ^6,2,5-thiadiazolidin-2-yl)naphthalen-2-yl]oxy}acetonitrile], the IC50 is > 100 nM.

Regarding `CCNC(=O)NCCOc1ccc2cc(O)c(N3CC(=O)NS3(=O)=O)c(F)c2c1` [Compound 270, N-ethyl-N′-(2-{[8-fluoro-6-hydroxy-7-(1,1,4-trioxo-1λ^6,2,5-thiadiazolidin-2-yl)naphthalen-2-yl]oxy}ethyl)urea], the IC50 lay within 1 to 10 nM.

Take `O=C1CN(c2c(O)cc3ccc(NCCNS(=O)(=O)C4CC4)cc3c2F)S(=O)(=O)N1` [Compound 125, N-(2-{[8-fluoro-6-hydroxy-7-(1,1,4-trioxo-1λ^6,2,5-thiadiazolidin-2-yl)naphthalen-2-yl]amino}ethyl)cyclopropanesulfonamide]: the 50% inhibitory concentration (IC50) was 10 to 100 nM.

For the compound `Nc1ccccc1CS(=O)(=O)N1CC=C(c2ccc3cc(O)c(N4CC(=O)NS4(=O)=O)c(F)c3c2)C1` [Compound 195, 5-(7-{1-[(2-aminophenyl)methanesulfonyl]-2,5-dihydro-1H-pyrrol-3-yl}-1-fluoro-3-hydroxynaphthalen-2-yl)-1λ^6,2,5-thiadiazolidine-1,1,3-trione], the half-maximal inhibitory concentration (IC50) was 1 to 10 nM.

Turning to `O=C1CN(c2c(O)cc3ccc(OCC4CC4)cc3c2F)S(=O)(=O)N1` [Compound 250, 5-[7-(cyclopropylmethoxy)-1-fluoro-3-hydroxynaphthalen-2-yl]-1λ^6,2,5-thiadiazolidine-1,1,3-trione], the IC50 was in the range of 1 to 10 nM.

With `[2H]C1([2H])C(=O)NS(=O)(=O)N1c1c(O)cc2ccc(OC)cc2c1F` [Compound 123, 5-(1-fluoro-3-hydroxy-7-methoxynaphthalen-2-yl)(4,4-^2H2)-1λ^6,2,5-thiadiazolidine-1,1,3-trione], the half-inhibitory concentration (IC50) was 1 to 10 nM.

In the case of `CC(C)(C)CCNc1ccc2cc(O)c(N3CC(=O)NS3(=O)=O)c(F)c2c1` [Compound 116, 5-{7-[(3,3-dimethylbutyl)amino]-1-fluoro-3-hydroxynaphthalen-2-yl}-1λ^6,2,5-thiadiazolidine-1,1,3-trione], the IC50 was 10 to 100 nM.

As to `O=C1CN(c2c(O)cc3ccc(OCC4CCOCC4)cc3c2F)S(=O)(=O)N1` [Compound 273, 5-{1-fluoro-3-hydroxy-7-[(oxan-4-yl)methoxy]naphthalen-2-yl}-1λ^6,2,5-thiadiazolidine-1,1,3-trione], the IC50 is > 100 nM.

Turning to `CCS(=O)(=O)NCCOc1ccc2cc(O)c(N3CC(=O)NS3(=O)=O)c(F)c2c1` [Compound 311, N-(2-{[8-fluoro-6-hydroxy-7-(1,1,4-trioxo-1λ^6,2,5-thiadiazolidin-2-yl)naphthalen-2-yl]oxy}ethyl)ethanesulfonamide], the 50% inhibitory concentration (IC50) was in the range of 1 to 10 nM.

As for `N#CC1(CCOc2ccc3cc(O)c(N4CC(=O)NS4(=O)=O)c(F)c3c2)CC1` [Compound 159, 1-(2-{[8-fluoro-6-hydroxy-7-(1,1,4-trioxo-1λ^6,2,5-thiadiazolidin-2-yl)naphthalen-2-yl]oxy}ethyl)cyclopropane-1-carbonitrile], the half-inhibitory concentration (IC50) lay within 1 to 10 nM.

As for `O=C1CN(c2c(O)cc3ccc(-c4cnn(S(=O)(=O)C5CC5)c4)cc3c2F)S(=O)(=O)N1` [Compound 303, 5-{7-[1-(cyclopropanesulfonyl)-1H-pyrazol-4-yl]-1-fluoro-3-hydroxynaphthalen-2-yl}-1λ^6,2,5-thiadiazolidine-1,1,3-trione], the half-maximal inhibitory concentration (IC50) was 1 to 10 nM.

As for `O=C1CN(c2c(O)cc3ccc(OCC4CCNCC4)cc3c2F)S(=O)(=O)N1` [Compound 114, 5-{1-fluoro-3-hydroxy-7-[(piperidin-4-yl)methoxy]naphthalen-2-yl}-1λ^6,2,5-thiadiazolidine-1,1,3-trione], the IC50 lay within 1 to 10 nM.

In the case of `CCCOc1ccc2cc(O)c(N3CC(=O)NS3(=O)=O)c(F)c2c1` [Compound 278, 5-(1-fluoro-3-hydroxy-7-propoxynaphthalen-2-yl)-1λ^6,2,5-thiadiazolidine-1,1,3-trione], the half-maximal inhibitory concentration (IC50) was in the range of 10 to 100 nM.

As to `O=C1CN(c2c(O)cc3ccc(OCCC4CC4)cc3c2F)S(=O)(=O)N1` [Compound 211, 5-[7-(2-cyclopropylethoxy)-1-fluoro-3-hydroxynaphthalen-2-yl]-1λ^6,2,5-thiadiazolidine-1,1,3-trione], the half-maximal inhibitory concentration (IC50) was < 1 nM.

As to `O=C1CN(c2c(O)cc3ccc(C4CN(S(=O)(=O)C5CC5)C4)cc3c2F)S(=O)(=O)N1` [Compound 206, 5-{7-[1-(cyclopropanesulfonyl)azetidin-3-yl]-1-fluoro-3-hydroxynaphthalen-2-yl}-1λ^6,2,5-thiadiazolidine-1,1,3-trione], the half-inhibitory concentration (IC50) lay in the range of 1 to 10 nM.

`O=C1CN(c2c(O)cc3ccc(OCCF)cc3c2F)S(=O)(=O)N1` [Compound 198, 5-[1-fluoro-7-(2-fluoroethoxy)-3-hydroxynaphthalen-2-yl]-1λ^6,2,5-thiadiazolidine-1,1,3-trione]: the half-maximal inhibitory concentration (IC50) was in the range of 10 to 100 nM.

In the case of `[2H]C([2H])([2H])Oc1ccc2cc(O)c(N3CC(=O)NS3(=O)=O)c(F)c2c1` [Compound 118, 5-{1-fluoro-3-hydroxy-7-[(2H3)methyloxy]naphthalen-2-yl}-1λ^6,2,5-thiadiazolidine-1,1,3-trione], the IC50 was in the range of 1 to 10 nM.

As to `N#CC1(CNc2ccc3cc(O)c(N4CC(=O)NS4(=O)=O)c(F)c3c2)CC1` [Compound 181, 1-({[8-fluoro-6-hydroxy-7-(1,1,4-trioxo-1λ^6,2,5-thiadiazolidin-2-yl)naphthalen-2-yl]amino}methyl)cyclopropane-1-carbonitrile], the half-inhibitory concentration (IC50) was in the range of 1 to 10 nM.

Consider `CC1(CCOc2ccc3cc(O)c(N4CC(=O)NS4(=O)=O)c(F)c3c2)CC1` [Compound 193, 5-{1-fluoro-3-hydroxy-7-[2-(1-methylcyclopropyl)ethoxy]naphthalen-2-yl}-1λ^6,2,5-thiadiazolidine-1,1,3-trione], for which the half-maximal inhibitory concentration (IC50) was in the range of 10 to 100 nM.

With `CCNCCOc1ccc2cc(O)c(N3CC(=O)NS3(=O)=O)c(F)c2c1` [Compound 144, 5-{7-[2-(ethylamino)ethoxy]-1-fluoro-3-hydroxynaphthalen-2-yl}-1λ^6,2,5-thiadiazolidine-1,1,3-trione], the IC50 was 10 to 100 nM.
